Holding throughout (assay): Bliss interaction score (quartile over a dose matrix) (fitness difference); higher = more antagonism (negative = synergy)
One assay deals with B. subtilis 168. A digest of the protocol:
(§1)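 The Bliss score subtracts expected fitness, the product of the single-drug fitness values, from observed fitness. Fitness is plate-normalised OD595 at entry into stationary phase, relative to the robust no-drug mean and capped at 1, with single-drug fitness inferred from combinations. Summaries are quartiles over technical, biological and donor/recipient replicates.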

The subject of another assay is S. aureus DSM 20231. A digest of the protocol: as §1
A further assay deals with S. aureus Newman. An outline of the steps: as §1
In another assay the test system is S. pneumoniae D39V. A digest of the protocol:
as §1

Structures are written as SMILES.
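Also: first quartile when negative (synergy) and third quartile when positive (antagonism).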

As to `CC(=O)OC[C@H]1O[C@@H]([S-])[C@H](OC(C)=O)[C@@H](OC(C)=O)[C@@H]1OC(C)=O.CCP(CC)CC.[Au+]` [Auranofin] + C[C@@H]1O[C@@H]1P(=O)(O)O [Fosfomycin], the Bliss interaction score is 0.0301 in the assay on B. subtilis 168, 0.0509 in the assay on S. aureus DSM 20231, 0.0901 with S. aureus Newman and -0.0421 in the assay on S. pneumoniae D39V.
For the compound `CC(=O)OC[C@H]1O[C@@H]([S-])[C@H](OC(C)=O)[C@@H](OC(C)=O)[C@@H]1OC(C)=O.CCP(CC)CC.[Au+]` [Auranofin] + C[C@@H](O)[C@H]1C(=O)N2C(C(=O)O)=C(SCCNC=N)C[C@H]12 [Imipenem], the Bliss interaction score in the assay with B. subtilis 168 was -0.0439; in the assay on S. aureus DSM 20231, -0.0179; in the assay on S. aureus Newman it was 0.162; in the assay with S. pneumoniae D39V, -0.0587.
With `CC(=O)OC[C@H]1O[C@@H]([S-])[C@H](OC(C)=O)[C@@H](OC(C)=O)[C@@H]1OC(C)=O.CCP(CC)CC.[Au+]` [Auranofin] + C[C@H]1COc2c(N3CCN(C)CC3)c(F)cc3c(=O)c(C(=O)O)cn1c23 [Levofloxacin], the Bliss interaction score in the assay with B. subtilis 168 is 0.044; with S. aureus DSM 20231, 0.0688; with S. aureus Newman, 0.0684; with S. pneumoniae D39V, -0.0939.
On to `CC(=O)OC[C@H]1O[C@@H]([S-])[C@H](OC(C)=O)[C@@H](OC(C)=O)[C@@H]1OC(C)=O.CCP(CC)CC.[Au+]` [Auranofin] + C[C@H]1c2cccc(O)c2C(=O)C2=C(O)[C@]3(O)C(=O)C(C(N)=O)=C(O)[C@@H](N(C)C)[C@@H]3[C@@H](O)[C@@H]21 [Doxycycline], for which the Bliss interaction score in the assay with B. subtilis 168 was 0.0704; with S. aureus DSM 20231, -0.0178; in the assay with S. aureus Newman it was 0.0622; in the assay with S. pneumoniae D39V, 0.052.
As to `CC(=O)OC[C@H]1O[C@@H]([S-])[C@H](OC(C)=O)[C@@H](OC(C)=O)[C@@H]1OC(C)=O.CCP(CC)CC.[Au+]` [Auranofin] + C[n+]1ccc(-c2cc[n+](C)cc2)cc1 [Paraquat], the Bliss interaction score in the assay with B. subtilis 168 was -0.0338; in the assay with S. aureus DSM 20231, -0.0369; in the assay with S. aureus Newman it was -0.0941; with S. pneumoniae D39V it was 0.0914.
On to `CC(=O)OC[C@H]1O[C@@H]([S-])[C@H](OC(C)=O)[C@@H](OC(C)=O)[C@@H]1OC(C)=O.CCP(CC)CC.[Au+]` [Auranofin] + Cc1cc(NS(=O)(=O)c2ccc(N)cc2)no1 [Sulfamethoxazol], for which the Bliss interaction score with B. subtilis 168 was -0.0445; with S. aureus DSM 20231 it was -0.0419; in the assay with S. aureus Newman it was -0.0374; with S. pneumoniae D39V, 0.088.
Turning to `CC(=O)OC[C@H]1O[C@@H]([S-])[C@H](OC(C)=O)[C@@H](OC(C)=O)[C@@H]1OC(C)=O.CCP(CC)CC.[Au+]` [Auranofin] + Cc1ncc([N+](=O)[O-])n1CCO [Metronidazole], the Bliss interaction score in the assay on B. subtilis 168 was -0.0357; in the assay with S. aureus DSM 20231 it was -0.046; with S. aureus Newman it was -0.137; with S. pneumoniae D39V, 0.133.
Taken in the same sequence, the figures for `CC(=O)OC[C@H]1O[C@@H]([S-])[C@H](OC(C)=O)[C@@H](OC(C)=O)[C@@H]1OC(C)=O.CCP(CC)CC.[Au+]` [Auranofin] + Cc1onc(-c2ccccc2)c1C(=O)N[C@@H]1C(=O)N2[C@@H]1SC(C)(C)[C@@H]2C(=O)O [Oxacillin] were -0.0319, 0.0406, -0.0535 and 0.125.
Turning to `CC(=O)OC[C@H]1O[C@@H]([S-])[C@H](OC(C)=O)[C@@H](OC(C)=O)[C@@H]1OC(C)=O.CCP(CC)CC.[Au+]` [Auranofin] + Clc1ccc(COC(Cn2ccnc2)c2ccc(Cl)cc2Cl)c(Cl)c1 [Miconazole], the Bliss interaction score in the assay on B. subtilis 168 was 0.0318; in the assay on S. aureus DSM 20231, -0.0279; in the assay with S. aureus Newman it was 0.0208; in the assay with S. pneumoniae D39V, 0.086.
Taken in the same sequence, the figures for `CC(=O)OC[C@H]1O[C@@H]([S-])[C@H](OC(C)=O)[C@@H](OC(C)=O)[C@@H]1OC(C)=O.CCP(CC)CC.[Au+]` [Auranofin] + Cn1nnc(-c2ccc(-c3ccc(N4C[C@H](CO)OC4=O)cc3F)cn2)n1 [Tedizolid] were -0.0317, -0.0334, -0.108 and 0.0602.
Take `CC(=O)OC[C@H]1O[C@@H]([S-])[C@H](OC(C)=O)[C@@H](OC(C)=O)[C@@H]1OC(C)=O.CCP(CC)CC.[Au+]` [Auranofin] + N[C@@H]1CONC1=O [CycloserineD]: the Bliss interaction score is 0.0806 with B. subtilis 168, -0.0513 with S. aureus DSM 20231, 0.0247 in the assay with S. aureus Newman and 0.106 in the assay on S. pneumoniae D39V.
In the case of `CC(=O)OC[C@H]1O[C@@H]([S-])[C@H](OC(C)=O)[C@@H](OC(C)=O)[C@@H]1OC(C)=O.CCP(CC)CC.[Au+]` [Auranofin] + O=C1CN(/N=C/c2ccc([N+](=O)[O-])o2)C(=O)N1 [Nitrofurantoin], the Bliss interaction score with B. subtilis 168 is -0.066; with S. aureus DSM 20231 it was -0.0217; in the assay on S. aureus Newman it was -0.132; in the assay with S. pneumoniae D39V, -0.421.
Take `CC(=O)OC[C@H]1O[C@@H]([S-])[C@H](OC(C)=O)[C@@H](OC(C)=O)[C@@H]1OC(C)=O.CCP(CC)CC.[Au+]` [Auranofin] + O=C(N[C@H](CO)[C@H](O)c1ccc([N+](=O)[O-])cc1)C(Cl)Cl [Chloramphenicol]: the Bliss interaction score was 0.0717 in the assay with B. subtilis 168, 0.0319 with S. aureus DSM 20231, 0.0594 in the assay on S. aureus Newman and -0.0406 with S. pneumoniae D39V.
In the case of `CC(=O)OC[C@H]1O[C@@H]([S-])[C@H](OC(C)=O)[C@@H](OC(C)=O)[C@@H]1OC(C)=O.CCP(CC)CC.[Au+]` [Auranofin] + O=C(O)[C@H]1/C(=C/CO)O[C@@H]2CC(=O)N21 [Clavulanic], the Bliss interaction score in the assay with B. subtilis 168 is -0.0681; with S. aureus DSM 20231 it was -0.188; with S. aureus Newman, 0.167; in the assay on S. pneumoniae D39V, -0.0729.
The matching figures for `CC(=O)OC[C@H]1O[C@@H]([S-])[C@H](OC(C)=O)[C@@H](OC(C)=O)[C@@H]1OC(C)=O.CCP(CC)CC.[Au+]` [Auranofin] + O=C(O)c1cn(C2CC2)c2cc(N3CCNCC3)c(F)cc2c1=O [Ciprofloxacin]: 0.0472, 0.0217, 0.0727 and -0.11.

The record behind these values is the supplement of paper PMC10627819.
